Laboratory results from publication PMC11124822, “Discovery and Anticancer Screening of Novel Oxindole-Based Derivative Bearing Pyridyl Group as Potent and Selective Dual FLT3/CDK2 Kinase Inhibitor” (Pharmaceuticals, 2024).

Tested on: OVCAR-3
Test: NCI-60 antiproliferative screen (SRB)
Assay type: cell-based, human
Settings: Homo sapiens; 10 µM single dose, 48 h; OVCAR-3 (Ovarian); read-out: Growth inhibition (%)

Row | SMILES | inhibition at 10 µM [%]
1 | O=C1Nc2ccc(Cl)cc2C1=Cc1ccc(OCc2ccccn2)cc1 (mixture of isomers) [Compound 5g, (E/Z)-5-Chloro-3-[4-(pyridin-2-ylmethoxy)benzylidene] indolin-2-one] | 42.7

Tested on: OVCAR-8
Test: NCI-60 antiproliferative screen (SRB)
Assay type: cell-based, human
Settings: Homo sapiens; 10 µM single dose, 48 h; OVCAR-8 (Ovarian); read-out: Growth inhibition (%)

Row | SMILES | inhibition at 10 µM [%]
2 | O=C1Nc2ccc(Cl)cc2C1=Cc1ccc(OCc2ccccn2)cc1 (mixture of isomers) [Compound 5g, (E/Z)-5-Chloro-3-[4-(pyridin-2-ylmethoxy)benzylidene] indolin-2-one] | 54.1

Tested on: HCT-116
Test: NCI-60 antiproliferative screen (SRB)
Assay type: cell-based, human
Settings: Homo sapiens; 10 µM single dose, 48 h; HCT-116 (Colon); read-out: Growth inhibition (%)

Row | SMILES | inhibition at 10 µM [%]
3 | O=C1Nc2ccc(Cl)cc2C1=Cc1ccc(OCc2ccccn2)cc1 (mixture of isomers) [Compound 5g, (E/Z)-5-Chloro-3-[4-(pyridin-2-ylmethoxy)benzylidene] indolin-2-one] | 71.5

Tested on: MDA-MB-468
Test: NCI-60 antiproliferative screen (SRB)
Assay type: cell-based, human
Settings: Homo sapiens; 10 µM single dose, 48 h; MDA-MB-468 (Breast); read-out: Growth inhibition (%)

Row | SMILES | inhibition at 10 µM [%]
4 | O=C1Nc2ccc(Cl)cc2C1=Cc1ccc(OCc2ccccn2)cc1 (mixture of isomers) [Compound 5g, (E/Z)-5-Chloro-3-[4-(pyridin-2-ylmethoxy)benzylidene] indolin-2-one] | 49.6

Tested on: OVCAR-5
Test: NCI-60 antiproliferative screen (SRB)
Assay type: cell-based, human
Settings: Homo sapiens; 10 µM single dose, 48 h; OVCAR-5 (Ovarian); read-out: Growth inhibition (%)

Row | SMILES | inhibition at 10 µM [%]
5 | O=C1Nc2ccc(Cl)cc2C1=Cc1ccc(OCc2ccccn2)cc1 (mixture of isomers) [Compound 5g, (E/Z)-5-Chloro-3-[4-(pyridin-2-ylmethoxy)benzylidene] indolin-2-one] | 11.8

Tested on: MDA-MB-231
Test: NCI-60 antiproliferative screen (SRB)
Assay type: cell-based, human
Settings: Homo sapiens; 10 µM single dose, 48 h; MDA-MB-231 (Breast); read-out: Growth inhibition (%)

Row | SMILES | inhibition at 10 µM [%]
6 | O=C1Nc2ccc(Cl)cc2C1=Cc1ccc(OCc2ccccn2)cc1 (mixture of isomers) [Compound 5g, (E/Z)-5-Chloro-3-[4-(pyridin-2-ylmethoxy)benzylidene] indolin-2-one] | 78.3

Tested on: U251
Test: NCI-60 antiproliferative screen (SRB)
Assay type: cell-based, human
Settings: Homo sapiens, U-251; 10 µM single dose, 48 h; U251 (CNS); read-out: Growth inhibition (%)

Row | SMILES | inhibition at 10 µM [%]
7 | O=C1Nc2ccc(Cl)cc2C1=Cc1ccc(OCc2ccccn2)cc1 (mixture of isomers) [Compound 5g, (E/Z)-5-Chloro-3-[4-(pyridin-2-ylmethoxy)benzylidene] indolin-2-one] | 76.3

Tested on: OVCAR-4
Test: NCI-60 antiproliferative screen (SRB)
Settings: Homo sapiens, OVCAR-4, 48 h, read-out: Growth inhibition (%)

Row | SMILES | inhibition at 10 µM [%]
8 | O=C1Nc2ccc(Cl)cc2C1=Cc1ccc(OCc2ccccn2)cc1 (mixture of isomers) [Compound 5g, (E/Z)-5-Chloro-3-[4-(pyridin-2-ylmethoxy)benzylidene] indolin-2-one] | 102

Tested on: KM12
Test: NCI-60 antiproliferative screen (SRB)
Assay type: cell-based, human
Settings: Homo sapiens; 10 µM single dose, 48 h; KM12 (Colon); read-out: Growth inhibition (%)

Row | SMILES | inhibition at 10 µM [%]
9 | O=C1Nc2ccc(Cl)cc2C1=Cc1ccc(OCc2ccccn2)cc1 (mixture of isomers) [Compound 5g, (E/Z)-5-Chloro-3-[4-(pyridin-2-ylmethoxy)benzylidene] indolin-2-one] | 21.2

Tested on: A498
Test: NCI-60 antiproliferative screen (SRB)
Assay type: cell-based, human
Settings: Homo sapiens; 10 µM single dose, 48 h; A498 (Renal); read-out: Growth inhibition (%)

Row | SMILES | inhibition at 10 µM [%]
10 | O=C1Nc2ccc(Cl)cc2C1=Cc1ccc(OCc2ccccn2)cc1 (mixture of isomers) [Compound 5g, (E/Z)-5-Chloro-3-[4-(pyridin-2-ylmethoxy)benzylidene] indolin-2-one] | 54.9

Tested on: CAKI-1
Test: NCI-60 antiproliferative screen (SRB)
Assay type: cell-based, human
Settings: Homo sapiens; 10 µM single dose, 48 h; CAKI-1 (Renal); read-out: Growth inhibition (%)

Row | SMILES | inhibition at 10 µM [%]
11 | O=C1Nc2ccc(Cl)cc2C1=Cc1ccc(OCc2ccccn2)cc1 (mixture of isomers) [Compound 5g, (E/Z)-5-Chloro-3-[4-(pyridin-2-ylmethoxy)benzylidene] indolin-2-one] | 38.4

Tested on: SK-MEL-2
Test: NCI-60 antiproliferative screen (SRB)
Assay type: cell-based, human
Settings: Homo sapiens; 10 µM single dose, 48 h; SK-MEL-2 (Melanoma); read-out: Growth inhibition (%)

Row | SMILES | inhibition at 10 µM [%]
12 | O=C1Nc2ccc(Cl)cc2C1=Cc1ccc(OCc2ccccn2)cc1 (mixture of isomers) [Compound 5g, (E/Z)-5-Chloro-3-[4-(pyridin-2-ylmethoxy)benzylidene] indolin-2-one] | -11.4

Tested on: MCF7
Test: NCI-60 antiproliferative screen (SRB)
Assay type: cell-based, human
Settings: Homo sapiens; 10 µM single dose, 48 h; MCF7 (Breast); read-out: Growth inhibition (%)

Row | SMILES | inhibition at 10 µM [%]
13 | O=C1Nc2ccc(Cl)cc2C1=Cc1ccc(OCc2ccccn2)cc1 (mixture of isomers) [Compound 5g, (E/Z)-5-Chloro-3-[4-(pyridin-2-ylmethoxy)benzylidene] indolin-2-one] | 71.1

Tested on: UO-31
Test: NCI-60 antiproliferative screen (SRB)
Assay type: cell-based, human
Settings: Homo sapiens; 10 µM single dose, 48 h; UO-31 (Renal); read-out: Growth inhibition (%)

Row | SMILES | inhibition at 10 µM [%]
14 | O=C1Nc2ccc(Cl)cc2C1=Cc1ccc(OCc2ccccn2)cc1 (mixture of isomers) [Compound 5g, (E/Z)-5-Chloro-3-[4-(pyridin-2-ylmethoxy)benzylidene] indolin-2-one] | 40.5

Tested on: HCC-2998
Test: NCI-60 antiproliferative screen (SRB)
Assay type: cell-based, human
Settings: Homo sapiens; 10 µM single dose, 48 h; HCC-2998 (Colon); read-out: Growth inhibition (%)

Row | SMILES | inhibition at 10 µM [%]
15 | O=C1Nc2ccc(Cl)cc2C1=Cc1ccc(OCc2ccccn2)cc1 (mixture of isomers) [Compound 5g, (E/Z)-5-Chloro-3-[4-(pyridin-2-ylmethoxy)benzylidene] indolin-2-one] | -4.51

Tested on: MALME-3M
Test: NCI-60 antiproliferative screen (SRB)
Assay type: cell-based, human
Settings: Homo sapiens; 10 µM single dose, 48 h; MALME-3M (Melanoma); read-out: Growth inhibition (%)

Row | SMILES | inhibition at 10 µM [%]
16 | O=C1Nc2ccc(Cl)cc2C1=Cc1ccc(OCc2ccccn2)cc1 (mixture of isomers) [Compound 5g, (E/Z)-5-Chloro-3-[4-(pyridin-2-ylmethoxy)benzylidene] indolin-2-one] | 61.5

Tested on: RPMI-8226
Test: NCI-60 antiproliferative screen (SRB)
Assay type: cell-based, human
Settings: Homo sapiens; 10 µM single dose, 48 h; RPMI-8226 (Leukemia); read-out: Growth inhibition (%)

Row | SMILES | inhibition at 10 µM [%]
17 | O=C1Nc2ccc(Cl)cc2C1=Cc1ccc(OCc2ccccn2)cc1 (mixture of isomers) [Compound 5g, (E/Z)-5-Chloro-3-[4-(pyridin-2-ylmethoxy)benzylidene] indolin-2-one] | 26.1

Tested on: MOLT-4
Test: NCI-60 antiproliferative screen (SRB)
Assay type: cell-based
Settings: Homo sapiens; 10 µM single dose, 48 h; MOLT-4 (Leukemia); read-out: Growth inhibition (%)

Row | SMILES | inhibition at 10 µM [%]
18 | O=C1Nc2ccc(Cl)cc2C1=Cc1ccc(OCc2ccccn2)cc1 (mixture of isomers) [Compound 5g, (E/Z)-5-Chloro-3-[4-(pyridin-2-ylmethoxy)benzylidene] indolin-2-one] | 53.1

Tested on: SF-295
Test: NCI-60 antiproliferative screen (SRB)
Assay type: cell-based, human
Settings: Homo sapiens; 10 µM single dose, 48 h; SF-295 (CNS); read-out: Growth inhibition (%)

Row | SMILES | inhibition at 10 µM [%]
19 | O=C1Nc2ccc(Cl)cc2C1=Cc1ccc(OCc2ccccn2)cc1 (mixture of isomers) [Compound 5g, (E/Z)-5-Chloro-3-[4-(pyridin-2-ylmethoxy)benzylidene] indolin-2-one] | 15.5

Tested on: PC-3
Test: NCI-60 antiproliferative screen (SRB)
Assay type: cell-based, human
Settings: Homo sapiens; 10 µM single dose, 48 h; PC-3 (Prostate); read-out: Growth inhibition (%)

Row | SMILES | inhibition at 10 µM [%]
20 | O=C1Nc2ccc(Cl)cc2C1=Cc1ccc(OCc2ccccn2)cc1 (mixture of isomers) [Compound 5g, (E/Z)-5-Chloro-3-[4-(pyridin-2-ylmethoxy)benzylidene] indolin-2-one] | 37.9

Tested on: M14
Test: NCI-60 antiproliferative screen (SRB)
Assay type: cell-based, human
Settings: Homo sapiens; 10 µM single dose, 48 h; M14 (Melanoma); read-out: Growth inhibition (%)

Row | SMILES | inhibition at 10 µM [%]
21 | O=C1Nc2ccc(Cl)cc2C1=Cc1ccc(OCc2ccccn2)cc1 (mixture of isomers) [Compound 5g, (E/Z)-5-Chloro-3-[4-(pyridin-2-ylmethoxy)benzylidene] indolin-2-one] | 10.1

Tested on: NCI/ADR-RES
Test: NCI-60 antiproliferative screen (SRB)
Assay type: cell-based, human
Settings: Homo sapiens; 10 µM single dose, 48 h; NCI/ADR-RES (Ovarian); read-out: Growth inhibition (%)

Row | SMILES | inhibition at 10 µM [%]
22 | O=C1Nc2ccc(Cl)cc2C1=Cc1ccc(OCc2ccccn2)cc1 (mixture of isomers) [Compound 5g, (E/Z)-5-Chloro-3-[4-(pyridin-2-ylmethoxy)benzylidene] indolin-2-one] | 85.9

Tested on: DU-145
Test: NCI-60 antiproliferative screen (SRB)
Assay type: cell-based, human
Settings: Homo sapiens; 10 µM single dose, 48 h; DU-145 (Prostate); read-out: Growth inhibition (%)

Row | SMILES | inhibition at 10 µM [%]
23 | O=C1Nc2ccc(Cl)cc2C1=Cc1ccc(OCc2ccccn2)cc1 (mixture of isomers) [Compound 5g, (E/Z)-5-Chloro-3-[4-(pyridin-2-ylmethoxy)benzylidene] indolin-2-one] | 12.2

Tested on: HOP-62
Test: NCI-60 antiproliferative screen (SRB)
Assay type: cell-based, human
Settings: Homo sapiens; 10 µM single dose, 48 h; HOP-62 (NSCLC); read-out: Growth inhibition (%)

Row | SMILES | inhibition at 10 µM [%]
24 | O=C1Nc2ccc(Cl)cc2C1=Cc1ccc(OCc2ccccn2)cc1 (mixture of isomers) [Compound 5g, (E/Z)-5-Chloro-3-[4-(pyridin-2-ylmethoxy)benzylidene] indolin-2-one] | 54.4

Tested on: SR
Test: NCI-60 antiproliferative screen (SRB)
Settings: Homo sapiens, 48 h, read-out: Growth inhibition (%)

Row | SMILES | inhibition at 10 µM [%]
25 | O=C1Nc2ccc(Cl)cc2C1=Cc1ccc(OCc2ccccn2)cc1 (mixture of isomers) [Compound 5g, (E/Z)-5-Chloro-3-[4-(pyridin-2-ylmethoxy)benzylidene] indolin-2-one] | 45.1

Tested on: SF-539
Test: NCI-60 antiproliferative screen (SRB)
Assay type: cell-based, human
Settings: Homo sapiens; 10 µM single dose, 48 h; SF-539 (CNS); read-out: Growth inhibition (%)

Row | SMILES | inhibition at 10 µM [%]
26 | O=C1Nc2ccc(Cl)cc2C1=Cc1ccc(OCc2ccccn2)cc1 (mixture of isomers) [Compound 5g, (E/Z)-5-Chloro-3-[4-(pyridin-2-ylmethoxy)benzylidene] indolin-2-one] | 26.5

Tested on: SW-620
Test: NCI-60 antiproliferative screen (SRB)
Assay type: cell-based, human
Settings: Homo sapiens; 10 µM single dose, 48 h; SW-620 (Colon); read-out: Growth inhibition (%)

Row | SMILES | inhibition at 10 µM [%]
27 | O=C1Nc2ccc(Cl)cc2C1=Cc1ccc(OCc2ccccn2)cc1 (mixture of isomers) [Compound 5g, (E/Z)-5-Chloro-3-[4-(pyridin-2-ylmethoxy)benzylidene] indolin-2-one] | 52.5

Tested on: UACC-257
Test: NCI-60 antiproliferative screen (SRB)
Assay type: cell-based, human
Settings: Homo sapiens; 10 µM single dose, 48 h; UACC-257 (Melanoma); read-out: Growth inhibition (%)

Row | SMILES | inhibition at 10 µM [%]
28 | O=C1Nc2ccc(Cl)cc2C1=Cc1ccc(OCc2ccccn2)cc1 (mixture of isomers) [Compound 5g, (E/Z)-5-Chloro-3-[4-(pyridin-2-ylmethoxy)benzylidene] indolin-2-one] | -18.2

Tested on: SK-MEL-28
Test: NCI-60 antiproliferative screen (SRB)
Assay type: cell-based, human
Settings: Homo sapiens; 10 µM single dose, 48 h; SK-MEL-28 (Melanoma); read-out: Growth inhibition (%)

Row | SMILES | inhibition at 10 µM [%]
29 | O=C1Nc2ccc(Cl)cc2C1=Cc1ccc(OCc2ccccn2)cc1 (mixture of isomers) [Compound 5g, (E/Z)-5-Chloro-3-[4-(pyridin-2-ylmethoxy)benzylidene] indolin-2-one] | -0.48
